Reference: patent US11066369B2, “N-(pyridin-2-yl)pyridine-sulfonamide derivatives and their use in the treatment of disease” (Novartis AG, priority 2016, dated 2021)
pEC50: −log10 of the molar value. Where a name gives a salt, the structure may show the parent alone. Read-outs that look alike come from different tables or passages of the source.

Target: T1, horseradish peroxidase (HRP) tagged delF508-CFTR (Homo sapiens, UniProt P13569, DEL508-508)
T1 construct: expressed in transfected cells
Assay: Measurement of delF508-CFTR-HRP surface expression in CFBE41o- cells;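 on DelF508-CFTR-HRP Amax %: percent efficacy relative to reference corrector lumacaftor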
Format: cell-based
Conditions: for pEC50: read-out: DelF508-CFTR-HRP EC50; for Emax: read-out: DelF508-CFTR-HRP Amax %
How it was run: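 CFBE41o- bronchial epithelial cells stably expressing delF508-CFTR with HRP in the fourth extracellular loop; expression induced 48h with 500 ng/mL doxycycline, then compounds added (top 10 μM, 10-point 3-fold series, ≤0.5% DMSO) for 24h at 37° C. Surface HRP measured by luminescence with cell-impermeant substrate; EC50 from logistic fit of triplicates, plate-normalized to lowest concentration; efficacy also relative to a reference corrector.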

[1] = CFBE41o- cells, mean of at least two replicates
[2] = CFBE41o- cells, surface expression Amax
[3] = delF508-CFTR-HRP surface expression, CFBE41o- cells

T1 sequence (P13569 with tags, fused parts or gaps DEL508-508): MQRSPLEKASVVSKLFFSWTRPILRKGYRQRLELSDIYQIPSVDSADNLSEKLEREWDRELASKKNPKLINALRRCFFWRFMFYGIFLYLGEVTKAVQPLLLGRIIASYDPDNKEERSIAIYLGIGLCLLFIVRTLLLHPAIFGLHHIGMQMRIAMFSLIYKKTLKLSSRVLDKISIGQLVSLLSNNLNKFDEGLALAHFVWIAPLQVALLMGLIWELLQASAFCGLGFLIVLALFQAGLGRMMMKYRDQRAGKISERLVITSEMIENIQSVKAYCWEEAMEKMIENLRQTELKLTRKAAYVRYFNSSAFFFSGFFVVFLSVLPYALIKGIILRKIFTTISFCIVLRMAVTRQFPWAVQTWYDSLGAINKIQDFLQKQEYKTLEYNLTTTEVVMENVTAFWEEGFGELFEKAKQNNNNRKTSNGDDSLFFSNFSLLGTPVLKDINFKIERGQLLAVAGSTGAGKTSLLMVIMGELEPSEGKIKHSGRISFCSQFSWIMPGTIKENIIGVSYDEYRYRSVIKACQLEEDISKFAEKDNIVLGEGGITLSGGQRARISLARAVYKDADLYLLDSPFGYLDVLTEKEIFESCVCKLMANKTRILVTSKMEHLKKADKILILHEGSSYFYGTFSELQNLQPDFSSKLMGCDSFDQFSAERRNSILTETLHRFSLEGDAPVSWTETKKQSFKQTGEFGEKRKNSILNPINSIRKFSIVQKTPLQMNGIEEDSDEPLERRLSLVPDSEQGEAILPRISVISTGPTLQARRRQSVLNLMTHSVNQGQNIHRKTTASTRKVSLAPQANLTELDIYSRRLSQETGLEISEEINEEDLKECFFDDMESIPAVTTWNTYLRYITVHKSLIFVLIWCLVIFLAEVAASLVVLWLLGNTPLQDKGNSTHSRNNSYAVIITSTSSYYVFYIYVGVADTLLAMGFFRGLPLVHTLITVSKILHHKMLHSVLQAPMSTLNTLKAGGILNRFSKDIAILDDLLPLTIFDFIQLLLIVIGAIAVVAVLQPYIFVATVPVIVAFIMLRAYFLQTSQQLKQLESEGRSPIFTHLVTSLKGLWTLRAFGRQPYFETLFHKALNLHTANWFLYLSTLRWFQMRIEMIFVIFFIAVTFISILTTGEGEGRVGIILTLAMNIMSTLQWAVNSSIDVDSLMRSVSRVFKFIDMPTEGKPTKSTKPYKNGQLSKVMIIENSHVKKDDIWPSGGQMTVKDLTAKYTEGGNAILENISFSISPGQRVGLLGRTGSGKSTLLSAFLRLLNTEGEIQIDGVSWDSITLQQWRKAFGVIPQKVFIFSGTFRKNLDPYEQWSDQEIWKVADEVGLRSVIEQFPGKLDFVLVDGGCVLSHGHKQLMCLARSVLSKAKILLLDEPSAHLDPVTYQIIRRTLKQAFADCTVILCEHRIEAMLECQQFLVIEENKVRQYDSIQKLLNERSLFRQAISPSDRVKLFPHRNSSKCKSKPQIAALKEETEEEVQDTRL

SMILES | pEC50 [1] | Emax [2] | Emax [3] | pEC50 [3] | Emax (CFBE41o-)
Cc1ccccc1-c1nc(NS(=O)(=O)c2cccc(N[C@@H]3C[C@@]4(C(=O)O)CC[C@@H]3O4)n2)ccc1C(F)(F)F (racemic) [Example 395, rac-(1RS,3RS,4SR)-3-((6-(N-(6-(o-tolyl)-5-(trifluoromethyl)pyridin-2-yl)sulfamoyl)pyridin-2-yl)amino)-7-oxabicyclo[2.2.1]heptane-1-carboxylic Acid] | 5.44 | 64.3% | – | – | –
CCc1ccccc1-c1nc(S(=O)(=O)Nc2cccc(N3CCC(C)(C(=O)O)CC3)n2)ccc1C(F)(F)F [Example 380, 1-(6-(6-(2-ethylphenyl)-5-(trifluoromethyl)pyridine-2-sulfonamido)pyridin-2-yl)-4-methylpiperidine-4-carboxylic Acid] | 5.58 | 42.3% | – | – | –
CCCC1(C(=O)O)CCCN(c2cccc(S(=O)(=O)Nc3ccc(C(F)(F)F)c(-c4ccccc4C)n3)n2)C1 (stereo not shown) [Example 458, 3-propyl-1-(6-(N-(6-(o-tolyl)-5-(trifluoromethyl)pyridin-2-yl)sulfamoyl)pyridin-2-yl)piperidine-3-carboxylic Acid] | 5.80 | 639% | – | – | –
Cc1ccc(F)cc1-c1nc(NS(=O)(=O)c2cccc(N3CCN(C(C)(C)C)CC3)n2)ccc1C(F)(F)F [Example 143, 6-(4-(tert-butyl)piperazin-1-yl)-N-(6-(5-fluoro-2-methylphenyl)-5-(trifluoromethyl)pyridin-2-yl)pyridine-2-sulfonamide] | – | – | 888% | 5.52 | –
CC1(C(=O)O)CCCN(c2cccc(S(=O)(=O)Nc3ccc(C(F)(F)F)c(-c4ccccc4CCO)n3)n2)C1 (stereo not shown) [Example 445, 1-(6-(N-(6-(2-(2-hydroxyethyl)phenyl)-5-(trifluoromethyl)pyridin-2-yl)sulfamoyl)pyridin-2-yl)-3-methylpiperidine-3-carboxylic Acid] | 5.57 | 94.1% | – | – | –
Cc1cccc(C)c1-c1nc(NS(=O)(=O)c2cccc(N3CCC[C@@](C)(C(=O)O)C3)n2)ccc1C(F)(F)F [Example 465, (R)-1-(6-(N-(6-(2,6-dimethylphenyl)-5-(trifluoromethyl)pyridin-2-yl)sulfamoyl)pyridin-2-yl)-3-methylpiperidine-3-carboxylic Acid] | 5.76 | – | – | – | –
CCCc1ccccc1-c1nc(NS(=O)(=O)c2cccc(N3CCC[C@@](C)(C(=O)O)C3)n2)ccc1C(F)(F)F [Example 423, (R)-3-methyl-1-(6-(N-(6-(2-propylphenyl)-5-(trifluoromethyl)pyridin-2-yl)sulfamoyl)pyridin-2-yl)piperidine-3-carboxylic Acid] | 6.12 | – | – | – | –
CC(C)c1ccccc1-c1nc(NS(=O)(=O)c2cccc(N[C@@H]3C[C@@]4(C(=O)O)CC[C@@H]3O4)n2)ccc1C(F)(F)F (racemic) [Example 403, rac-(1RS,3RS,4SR)-3-((6-(N-(6-(2-isopropylphenyl)-5-(trifluoromethyl)pyridin-2-yl)sulfamoyl)pyridin-2-yl)amino)-7-oxabicyclo[2.2.1]heptane-1-carboxylic Acid] | 5.63 | 155% | – | – | –
CC1(C(=O)O)CCCN(c2cccc(S(=O)(=O)Nc3ccc(Cl)c(-c4ccccc4C4CC4)n3)n2)C1 (stereo not shown) [Example 431, 1-(6-(N-(5-chloro-6-(2-cyclopropylphenyl)pyridin-2-yl)sulfamoyl)pyridin-2-yl)-3-methylpiperidine-3-carboxylic Acid] | 5.76 | 763% | – | – | –
CC(C)c1ccccc1-c1nc(NS(=O)(=O)c2cccc(N[C@H]3CCC[C@H](C(=O)O)C3)n2)ccc1C(F)(F)F [Example 418, (1S,3S)-3-((6-(N-(6-(2-isopropylphenyl)-5-(trifluoromethyl)pyridin-2-yl)sulfamoyl)pyridin-2-yl)amino)cyclohexanecarboxylic Acid] | 5.91 | 644% | – | – | –
CO[C@H]1CNCC[C@H]1Nc1cccc(S(=O)(=O)Nc2ccc(C(F)(F)F)c(-c3ccccc3C)n2)n1 (racemic) [Example 115, 6-(((3S,4R)-3-methoxypiperidin-4-yl)amino)-N-(6-(o-tolyl)-5-(trifluoromethyl)pyridin-2-yl)pyridine-2-sulfonamide Hydrochloride] | – | – | 192% | 5.42 | –
CCC[C@@H]1CCN(c2cccc(S(=O)(=O)Nc3ccc(Cl)c(-c4cccnc4C(C)C)n3)n2)[C@H]2C[C@H](C(=O)O)[C@@H]12 (racemic) [Example 434, rac-(1SR,5RS,6RS,7SR)-2-(6-(N-(3-chloro-2′-isopropyl-[2,3′-bipyridin]-6-yl)sulfamoyl)pyridin-2-yl)-5-propyl-2-azabicyclo[4.2.0]octane-7-carboxylic Acid] | 5.65 | 734% | – | – | –
CC(C)c1ccccc1-c1nc(NS(=O)(=O)c2cccc(N3CCCC(C)(C(=O)O)C3)n2)ccc1C(F)(F)F (stereo not shown) [Example 377, 1-(6-(N-(6-(2-isopropylphenyl)-5-(trifluoromethyl)pyridin-2-yl)sulfamoyl)pyridin-2-yl)-3-methylpiperidine-3-carboxylic Acid] | – | – | – | 6.13 | –
CC1(C(=O)O)CCN(c2cccc(S(=O)(=O)Nc3ccc(C(F)(F)F)c(-c4ccccc4C4CCCC4)n3)n2)CC1 [Example 379, 1-(6-(N-(6-(2-cyclopentylphenyl)-5-(trifluoromethyl)pyridin-2-yl)sulfamoyl)pyridin-2-yl)-4-methylpiperidine-4-carboxylic Acid] | 5.97 | – | – | – | 646%
CCC1(C(=O)O)CCCN(c2cccc(S(=O)(=O)Nc3ccc(Cl)c(-c4c(C)cccc4C)n3)n2)C1 (stereo not shown) [Example 453, 1-(6-(N-(5-chloro-6-(2,6-dimethylphenyl)pyridin-2-yl)sulfamoyl)pyridin-2-yl)-3-ethylpiperidine-3-carboxylic Acid] | 5.80 | – | – | – | –
Cc1cccc(C)c1-c1nc(NS(=O)(=O)c2cccc(N3CCC(NC(=O)OC(C)(C)C)(C(=O)O)CC3)n2)ccc1Cl [Example 268, 4-{[(tert-butoxy)carbonyl]amino}-1-(6-{[5-chloro-6-(2,6-dimethylphenyl)pyridin-2-yl]sulfamoyl}pyridin-2-yl)piperidine-4-carboxylic Acid] | – | – | 103% | 5.43 | –

Now from value to compound, other results behind:

pEC50 [1] | Emax [2] | Emax [3] | pEC50 [3] | SMILES | Emax (CFBE41o-)
– | – | 421% | 5.77 | Cc1cc(F)cc(C)c1-c1nc(NS(=O)(=O)c2cccc(N)n2)ccc1Cl [Example 30, 6-amino-N-(5-chloro-6-(4-fluoro-2,6-dimethylphenyl)pyridin-2-yl)pyridine-2-sulfonamide] | –
5.98 | 680% | – | – | CCc1ccccc1-c1nc(NS(=O)(=O)c2cccc(N3CCC[C@@](C)(C(=O)O)C3)n2)ccc1Cl [Example 393, (R)-1-(6-(N-(5-chloro-6-(2-ethylphenyl)pyridin-2-yl)sulfamoyl)pyridin-2-yl)-3-methylpiperidine-3-carboxylic Acid] | –
– | – | 115% | 5.39 | Cc1ccc(C#N)cc1-c1nc(NS(=O)(=O)c2cccc(N)n2)ccc1C(F)(F)F [Example 83, 6-amino-N-(6-(5-cyano-2-methylphenyl)-5-(trifluoromethyl)pyridin-2-yl)pyridine-2-sulfonamide] | –
– | – | 152% | 5.59 | Cc1ccc(NS(=O)(=O)c2cccc(N)n2)nc1-c1ccccc1Cl [Example 77, 6-amino-N-(6-(2-chlorophenyl)-5-methylpyridin-2-yl)pyridine-2-sulfonamide Hydrochloride] | –
– | – | 501% | 5.89 | Nc1cccc(S(=O)(=O)Nc2ccc(Cl)c(-c3ccccc3C3CC3)n2)n1 [Example 19, 6-amino-N-(5-chloro-6-(2-cyclopropylphenyl)pyridin-2-yl)pyridine-2-sulfonamide] | –
– | – | 335% | 5.86 | Cc1cccc(C)c1-c1nc(NS(=O)(=O)c2ccc(N)nc2)ccc1Cl [Example 47, 6-amino-N-(5-chloro-6-(2,6-dimethylphenyl)pyridin-2-yl)pyridine-3-sulfonamide] | –
– | – | 345% | 5.91 | CC(C)c1ccccc1-c1nc(NS(=O)(=O)c2ccc(N)nc2)ccc1Cl [Example 45, 6-amino-N-(5-chloro-6-(2-isopropylphenyl)pyridin-2-yl)pyridine-3-sulfonamide] | –
– | – | 404% | 5.66 | Cc1ccccc1-c1nc(NS(=O)(=O)c2nc(N)ccc2F)ccc1Cl [Example 33, 6-amino-N-(5-chloro-6-(o-tolyl)pyridin-2-yl)-3-fluoropyridine-2-sulfonamide] | –
– | – | 252% | 5.78 | Cc1ccccc1-c1nc(NS(=O)(=O)c2cccc(N3CC[C@@H](C(=O)O)C3)n2)ccc1C(F)(F)F [Example 349, (3R)-1-(6-{[6-(2-methylphenyl)-5-(trifluoromethyl)pyridin-2-yl]sulfamoyl}pyridin-2-yl)pyrrolidine-3-carboxylic Acid] | –
– | – | 305% | 5.63 | Nc1ccc(S(=O)(=O)Nc2ccc(Cl)c(-c3ccccc3C3CC3)n2)cn1 [Example 54, 6-amino-N-(5-chloro-6-(2-cyclopropylphenyl)pyridin-2-yl)pyridine-3-sulfonamide] | –
– | – | 499% | 5.75 | [2H]C([2H])([2H])c1ccccc1-c1nc(NS(=O)(=O)c2cccc(N)n2)ccc1Cl [Example 20, 6-amino-N-(5-chloro-6-(2-(methyl-d3)phenyl)pyridin-2-yl)pyridine-2-sulfonamide] | –
– | – | 429% | 5.97 | CCc1ccccc1-c1nc(NS(=O)(=O)c2cccc(N)n2)ccc1Cl [Example 29, 6-amino-N-(5-chloro-6-(2-ethylphenyl)pyridin-2-yl)pyridine-2-sulfonamide] | –
